Source: the supplement of paper PMC4862054

What was measured:
Test in all cases: drug sensitivity score (DSS), CellTox Green (DSS (AUC-based score)); higher = stronger drug effect (viability inhibition or cytotoxicity); extreme values may be limits of the assay
Conditions in all cases: incubation time: 72 h
MDA-MB-436 = test system: MDA-MB-436
Method in brief: (§1)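 Breast cancer cell lines (20 µl suspension) were seeded into 384-well plates holding compound at 5 concentrations in 10-fold steps over a compound-specific 10,000-fold range, then incubated 72 h. CellTox Green fluorescence (485/520 nm) was read first, then CellTiter-Glo luminescence after 10 min at room temperature. Each plate was normalised to 0.1 % DMSO and a positive kill control. The drug sensitivity score was calculated from the area under the fitted dose-response curve.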

CAL-85-1 = test system: CAL-85-1
Method in brief: as §1

BT-474 = test system: BT-474
Method in brief: as §1

MDA-MB-468 = test system: MDA-MB-468
Method in brief: as §1

DU-4475 = test system: DU-4475
Method in brief: as §1

CAL-120 = test system: CAL-120
Method in brief: as §1

Hs578T = test system: Hs578T
Method in brief: as §1

HCC1937 = test system: HCC1937
Method in brief: as §1

MCF-10A = test system: MCF-10A
Method in brief: as §1

MDA-MB-231 = test system: MDA-MB-231
Method in brief: as §1

HCC1599 = test system: HCC1599
Method in brief: as §1

MDA-MB-453 = test system: MDA-MB-453
Method in brief: as §1

HCC1143 = test system: HCC1143
Method in brief: as §1

CAL-51 = test system: CAL-51
Method in brief: as §1

Compound	drug sensitivity score (MDA-MB-436)	drug sensitivity score (CAL-85-1)	drug sensitivity score (BT-474)	drug sensitivity score (MDA-MB-468)	drug sensitivity score (DU-4475)	drug sensitivity score (CAL-120)	drug sensitivity score (Hs578T)	drug sensitivity score (HCC1937)	drug sensitivity score (MCF-10A)	drug sensitivity score (MDA-MB-231)	drug sensitivity score (HCC1599)	drug sensitivity score (MDA-MB-453)	drug sensitivity score (HCC1143)	drug sensitivity score (CAL-51)
N#Cc1ccc(COC[C@H]2O[C@@H](n3c(NCc4ccc(Cl)c(Cl)c4)nc4c(N)ncnc43)[C@H](O)[C@@H]2O)cc1	0	2.89	0	0	0	0	0	0	0	0	0	0	0	0
COc1cc(O)c2c(c1)/C=C/C[C@H](O)[C@H](O)C(=O)/C=C\C[C@H](C)OC2=O [(5Z)-7-Oxozeaenol]	0	18.5	1.65	0	4.86	0	8.72	18.1	0	9.09	0	0	0	1.06
COc1cc(OC2CCN(C)CC2)ccc1Nc1ncc2c(n1)n(C1CCCC1)c(=O)n2C [AZ 3146]	4.7	0	0	0	0	0	0	–	0	0	2.26	0	0	9.75
CNC(=O)c1cccc(-c2ccc3c(N4CCOC[C@@H]4C)nc(N4CCOC[C@@H]4C)nc3n2)c1 [AZD2014]	0	0	0	0	0	0	0	0	0	0	0	0	0	0
CN(C)c1nc(N(C)C)nc(N(C)C)n1 [Altretamine]	0	0	0	0	0	0	0	0	0	0	0	0	0	0
O=C(/C=C/c1cccc(S(=O)(=O)Nc2ccccc2)c1)NO [Belinostat]	0	11.5	8.01	2.85	3.83	9.87	6.63	0	10.5	17.8	0	0.0261	0	13
Nc1cc(C(F)(F)F)c(-c2cc(N3CCOCC3)nc(N3CCOCC3)n2)cn1 [Buparlisib]	0	0	3.4	0	0	0	2.89	0	0.18	7.38	0	0	0	6.04
CNC(=O)c1ccc(N2C(=S)N(c3ccc(C#N)c(C(F)(F)F)c3)C(=O)C2(C)C)cc1F [Enzalutamide]	0	0	0	0	0	0	0	0	0	0	0	0	0	0
C=C1C[C@@H]2[C@H](CC[C@]3(C)C(=O)CC[C@@H]23)[C@@]2(C)C=CC(=O)C=C12 [Exemestane]	0	1.08	0	0	0	0	0	0	0	0	0	0	0	0
CCOC(=O)CCNc1cc(N2CCc3ccccc3CC2)nc(-c2ccccn2)n1 [GSK-J4]	7.09	16.5	19	12.3	2.65	8.01	20.6	7.05	8.52	11.1	2.51	7.34	18.6	11.4
Cc1cc(Nc2cc(CN3CCOCC3)c3nc(C)c(Cc4ccc(Cl)cc4F)n3n2)n[nH]1 [Gandotinib]	0.139	3.97	0	3.86	0	0	7.9	0	0	0	0	0	0	7.6
COc1cc2ncnc(Nc3ccc(F)c(Cl)c3)c2cc1OCCCN1CCOCC1 [Gefitinib]	0	4.48	–	0	0	0	0	0	0	0.542	0	0	0	0
O=C(Nc1ccncc1)C(=O)c1cn(Cc2ccc(Cl)cc2)c2ccccc12 [Indibulin]	0	11.7	1.31	3.09	0	0.995	1.65	0	0	8.72	0	0	0	12.5
CCc1c2c(nc3ccc(OC(=O)N4CCC(N5CCCCC5)CC4)cc13)-c1cc3c(c(=O)n1C2)COC(=O)[C@]3(O)CC [Irinotecan]	0	0	0	0	0	0.997	1.06	0	0	0	0	0	0	10.7
Oc1ccc2c(c1)CC[C@H](c1ccccc1)[C@@H]2c1ccc(OCCN2CCCC2)cc1 [Lasofoxifene]	0	3.43	0	0	0	0	3.26	0	0	0	0	0	0	0
COC(=O)c1ccc2c(c1)NC(=O)/C2=C(\Nc1ccc(N(C)C(=O)CN2CCN(C)CC2)cc1)c1ccccc1 [Nintedanib]	1.22	0	6.74	2.7	0	0	0	7.85	1.89	7.47	0	0	0	6.03
O=C(Nc1cccnc1)N1CCC(Cc2cccc(Oc3ccc(C(F)(F)F)cn3)c2)CC1 [PF-3845]	0	0	0	0	0	0	0	0	0	0	0	0	0	0
Cc1[nH]c2ccccc2c1CCNCc1ccc(/C=C/C(=O)NO)cc1 [Panobinostat]	0	17.3	14.6	10	6.99	13.8	18.5	14.2	1.6	19.9	4.47	4.41	6.53	18.2
CNC(=O)c1cc(Oc2ccc(NC(=O)Nc3ccc(Cl)c(C(F)(F)F)c3)c(F)c2)ccn1 [Regorafenib]	0	0	0	0	0	0	0	3.47	0	0	0	0	0	0
CO[C@H]1C[C@@H]2CC[C@@H](C)[C@@](O)(O2)C(=O)C(=O)N2CCCC[C@H]2C(=O)O[C@H]([C@H](C)C[C@@H]2CC[C@@H](OP(C)(C)=O)[C@H](OC)C2)CC(=O)[C@H](C)/C=C(\C)[C@@H](O)[C@@H](OC)C(=O)[C@H](C)C[C@H](C)/C=C/C=C/C=C/1C [Ridaforolimus]	4.09	0	0	0	0	0	0	0	0	0.968	0	0	0	0
c1ccc2c(CCNc3ccc(Nc4ccncc4)cc3)c[nH]c2c1 [Serdemetan]	0	0	0	0	1.51	0	0	0	0	2.18	0	0	0	4.55
CC(C)C[C@@H](C(=O)N[C@H](C(=O)OC1CCCC1)c1ccccc1)[C@H](O)C(=O)NO [Tosedostat]	10.1	21.8	2.81	20.1	0	13.6	1.64	0	0	26.6	0	0	1.52	15.2
COc1cc2c(NC3CCN(C(C)C)CC3)nc(N3CCC(F)(F)CC3)nc2cc1OCCCN1CCCC1 [UNC0642]	11	6.85	6.46	5.22	0	4.13	0	1.95	2.29	7.71	0	1.18	0	0
COc1cc2/c(=N/c3ccc(Br)cc3F)nc[nH]c2cc1OCC1CCN(C)CC1 [Vandetanib]	0	0	0	0	0	0	0	0	0	3.15	0	0	0	0
COCC[n+]1c2c(n(Cc3cnccn3)c1C)C(=O)c1ccccc1C2=O [YM155]	27.2	42.2	33.6	37.3	3.34	39	5.6	29.5	34.7	30.1	11.8	12.2	23.5	28.2
